Reference: patent US20020137929A1, “1 - (3-heterocyclylphenyl) isothiourea, -isourea, -guanidine and -amidine herbicidal agents” (Intellectual Property Department, BASF Aktiengesellschaft, priority 1998, published 2002)

How the values were obtained:
[1] = test system: AMBEL (Ragweed, Common); experiment: Preemergence herbicidal evaluation; assay type: in vivo, Ambrosia artemisifolia; details: rated 4-5 weeks after treatment
Outline: (§1)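 In this greenhouse assay, monocot and dicot seeds are planted in soil and treated prior to emergence with an aqueous acetone spray (about 0.0156-0.500 kg/ha). Plants are assessed visually against control on a 0-9 scale after 4-5 weeks.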

[2] = test system: IPOHE (Morningglory, Ivyleaf); experiment: Preemergence herbicidal evaluation; assay type: in vivo, Ipomoea hederacea; details: rated 4-5 weeks after treatment
Outline: as §1

[3] = test system: GALAP (Galium); experiment: Postemergence herbicidal evaluation; assay type: in vivo, Galium aparine; details: postemergence
Outline: (§2)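 Two-week seedlings sprayed postemergence at 40 psi; formulation: 1:1 acetone/water, 0.5% TWEEN 20; application ≈0.0156–0.500 kg/ha. Greenhouse grow-out, then 0–9 visual scoring at 4–5 weeks.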

[4] = test system: ZEAMX (Corn, Field); experiment: Preemergence herbicidal evaluation; assay type: in vivo, Zea mays; details: rated 4-5 weeks after treatment
Outline: as §1

[5] = test system: ECHORC (Watergrass (Calif.)); experiment: Preemergence weed control under flooded paddy conditions; assay type: in vivo, Echinochloa oryzoides; details: rated 3-4 weeks after treatment
Outline: (§3)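 Flooded-pot preemergence screen with silt loam and seeds in the upper 0.5 cm. Dose about 0.0313 to 0.500 kg/ha, delivered into flood water; visual 0-9 score after 3 to 4 weeks.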

[6] = test system: CYPSE (Flatsedge); experiment: as above; assay type: in vivo, Cyperus serotinus; details: rated 3-4 weeks after treatment
Outline: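 Greenhouse paddy assay. Acetone/water (50/50 v/v) solutions dosed into flood water, equivalent to about 0.0313 to 0.500 kg/ha active ingredient, over seeds planted 0.5 cm deep in silt loam. Score: 0-9 visual, based on stand, vigor, malformation, size and chlorosis, 3 to 4 weeks after treatment.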

[7] = test system: ZEAMX (Corn, Field); experiment: Postemergence herbicidal evaluation; assay type: in vivo, Zea mays; details: postemergence
Outline: as §2

[8] = test system: CYPIR (Rice Flatsedge); experiment: Preemergence weed control under flooded paddy conditions; assay type: in vivo, Cyperus iria; details: rated 3-4 weeks after treatment
Outline: as §3

[9] = test system: CHEAL (Lambsquarters, Common); experiment: Preemergence herbicidal evaluation; assay type: in vivo, Chenopodium album; details: rated 4-5 weeks after treatment
Outline: as §1

[10] = test system: CASOB (Sicklepod); experiment: Postemergence herbicidal evaluation; assay type: in vivo, Cassia obtusifolia; details: postemergence
Outline: as §2

[11] = test system: ORYSAT (Rice, Tebonnet); experiment: Preemergence herbicidal evaluation; assay type: in vivo, Oryza sativa, (L.) Tebonnet; details: rated 4-5 weeks after treatment
Outline: as §1

[12] = test system: TRZAWR (Wheat, Winter, cv Riband); experiment: Preemergence herbicidal evaluation; assay type: in vivo, Triticum aestivum; details: rated 4-5 weeks after treatment
Outline: as §1

[13] = rate 0.0156 kg/ha, rating scale 0-9
[14] = rate 0.0313 kg/ha, rating scale 0-9
[15] = rate 0.0625 kg/ha, rating scale 0-9
[16] = rate 0.1250 kg/ha, rating scale 0-9
[17] = rate 0.2500 kg/ha, rating scale 0-9

Cn1c(C(F)(F)F)cc(=O)n(-c2cc(N=C3SCC(=O)N3Cc3ccc(C(F)(F)F)cc3)c(Cl)cc2F)c1=O [Compound 141, 3-{4-Chloro-2-fluoro-5-{{3-[p-(trifluoromethyl)benzyl]-4-oxo-2-thiazolidinylidene}-amino}phenyl}-1-methyl-6-(trifluoromethyl)-2,4 (1H, 3H)-pyrimidinedione]
2.0: Herbicidal rating GALAP ([3]; rate 0.0313 kg/ha) | Herbicidal rating GALAP ([3]; rate 0.0625 kg/ha) | Preemergence herbicidal rating ZEAMX [4, 17]
9.0: Preemergence herbicidal rating CHEAL [9, 14] | Preemergence herbicidal rating CHEAL [9, 15] | Preemergence herbicidal rating CHEAL [9, 16] | Preemergence herbicidal rating CHEAL [9, 17]
4.5: Herbicidal rating ZEAMX ([7]; rate 0.0313 kg/ha)
4.0: Preemergence herbicidal rating AMBEL [1, 17] | Herbicidal rating ZEAMX ([7]; rate 0.0156 kg/ha) | herbicidal effect rating, CYPIR ([8]; 0.0313 kg/ha)
3.0: Preemergence herbicidal rating IPOHE [2, 17] | Preemergence herbicidal rating CHEAL [9, 13]
6.0: herbicidal effect rating, CYPIR ([8]; 0.1250 kg/ha) | herbicidal effect rating, CYPIR ([8]; 0.2500 kg/ha)
0.0: Preemergence herbicidal rating AMBEL [1, 13] | Preemergence herbicidal rating AMBEL [1, 14] | Preemergence herbicidal rating AMBEL [1, 15] | Preemergence herbicidal rating AMBEL [1, 16] | Preemergence herbicidal rating IPOHE [2, 13] | Preemergence herbicidal rating IPOHE [2, 14] | Preemergence herbicidal rating IPOHE [2, 15] | Preemergence herbicidal rating IPOHE [2, 16] | Herbicidal rating GALAP ([3]; rate 0.0156 kg/ha) | Preemergence herbicidal rating ZEAMX [4, 13] | Preemergence herbicidal rating ZEAMX [4, 14] | Preemergence herbicidal rating ZEAMX [4, 15] | Preemergence herbicidal rating ZEAMX [4, 16] | herbicidal effect rating, CYPSE ([6]; 0.0313 kg/ha) | herbicidal effect rating, CYPSE ([6]; 0.0625 kg/ha) | herbicidal effect rating, CYPSE ([6]; 0.1250 kg/ha) | herbicidal effect rating, CYPSE ([6]; 0.2500 kg/ha) | Herbicidal rating CASOB ([10]; rate 0.0156 kg/ha) | Herbicidal rating CASOB ([10]; rate 0.0313 kg/ha) | Herbicidal rating CASOB ([10]; rate 0.0625 kg/ha) | Preemergence herbicidal rating ORYSAT [11, 13] | Preemergence herbicidal rating ORYSAT [11, 14] | Preemergence herbicidal rating ORYSAT [11, 15] | Preemergence herbicidal rating ORYSAT [11, 16] | Preemergence herbicidal rating ORYSAT [11, 17] | Preemergence herbicidal rating TRZAWR [12, 13] | Preemergence herbicidal rating TRZAWR [12, 14] | Preemergence herbicidal rating TRZAWR [12, 15] | Preemergence herbicidal rating TRZAWR [12, 16] | Preemergence herbicidal rating TRZAWR [12, 17]
5.0: herbicidal effect rating, ECHORC ([5]; 0.0313 kg/ha) | herbicidal effect rating, ECHORC ([5]; 0.0625 kg/ha) | Herbicidal rating ZEAMX ([7]; rate 0.0625 kg/ha) | herbicidal effect rating, CYPIR ([8]; 0.0625 kg/ha)
7.0: herbicidal effect rating, ECHORC ([5]; 0.1250 kg/ha) | herbicidal effect rating, ECHORC ([5]; 0.2500 kg/ha)

COC(=O)COC(=O)CN1C(=O)CSC1=Nc1cc(-n2c(=O)cc(C(F)(F)F)n(C)c2=O)c(F)cc1Cl [Compound 108, 2-{{2-Chloro-5-[3,6-dihydro-3-methyl-2,6-dioxo-4-(trifluoromethyl)-1(2H)-pyrimidinyl]-4-fluorophenyl}imino}-4-oxo-3-thiazolidineacetic acid, ester with methyl glycolate]
6.0: Herbicidal rating ZEAMX ([7]; rate 0.0315 kg/ha) | CYPIR herbicidal effect rating ([8]; 0.0625 kg/ha)
0.0: Preemergence herbicidal rating AMBEL ([1]; rate 0.0156 kg/ha) | Preemergence herbicidal rating AMBEL ([1]; rate 0.0313 kg/ha) | Preemergence herbicidal rating AMBEL ([1]; rate 0.0625 kg/ha) | Preemergence herbicidal rating AMBEL ([1]; rate 0.1250 kg/ha) | Preemergence herbicidal rating IPOHE ([2]; rate 0.0156 kg/ha) | Preemergence herbicidal rating IPOHE ([2]; rate 0.0313 kg/ha) | Preemergence herbicidal rating IPOHE ([2]; rate 0.0625 kg/ha) | Preemergence herbicidal rating ZEAMX ([4]; rate 0.0156 kg/ha) | Preemergence herbicidal rating ZEAMX ([4]; rate 0.0313 kg/ha) | Preemergence herbicidal rating ZEAMX ([4]; rate 0.0625 kg/ha) | ECHORC herbicidal effect rating ([5]; 0.0313 kg/ha) | ECHORC herbicidal effect rating ([5]; 0.0625 kg/ha) | ECHORC herbicidal effect rating ([5]; 0.1250 kg/ha) | ECHORC herbicidal effect rating ([5]; 0.2500 kg/ha) | CYPSE herbicidal effect rating ([6]; 0.0313 kg/ha) | CYPSE herbicidal effect rating ([6]; 0.0625 kg/ha) | CYPSE herbicidal effect rating ([6]; 0.1250 kg/ha) | Preemergence herbicidal rating CHEAL ([9]; rate 0.0313 kg/ha) | Preemergence herbicidal rating ORYSAT ([11]; rate 0.0156 kg/ha) | Preemergence herbicidal rating ORYSAT ([11]; rate 0.0313 kg/ha) | Preemergence herbicidal rating ORYSAT ([11]; rate 0.0625 kg/ha) | Preemergence herbicidal rating TRZAWR ([12]; rate 0.0156 kg/ha) | Preemergence herbicidal rating TRZAWR ([12]; rate 0.0313 kg/ha) | Preemergence herbicidal rating TRZAWR ([12]; rate 0.0625 kg/ha)
1.0: Preemergence herbicidal rating AMBEL ([1]; rate 0.2500 kg/ha) | Herbicidal rating GALAP ([3]; rate 0.0158 kg/ha) | Herbicidal rating GALAP ([3]; rate 0.0315 kg/ha) | Preemergence herbicidal rating ZEAMX ([4]; rate 0.1250 kg/ha) | Herbicidal rating CASOB ([10]; rate 0.0158 kg/ha) | Herbicidal rating CASOB ([10]; rate 0.0315 kg/ha) | Herbicidal rating CASOB ([10]; rate 0.0630 kg/ha) | Preemergence herbicidal rating ORYSAT ([11]; rate 0.1250 kg/ha)
7.0: CYPIR herbicidal effect rating ([8]; 0.1250 kg/ha) | CYPIR herbicidal effect rating ([8]; 0.2500 kg/ha)
2.0: Preemergence herbicidal rating ZEAMX ([4]; rate 0.2500 kg/ha) | Preemergence herbicidal rating TRZAWR ([12]; rate 0.1250 kg/ha)
6.5: Herbicidal rating ZEAMX ([7]; rate 0.0630 kg/ha)
9.0: Preemergence herbicidal rating IPOHE ([2]; rate 0.2500 kg/ha) | Preemergence herbicidal rating CHEAL ([9]; rate 0.0625 kg/ha) | Preemergence herbicidal rating CHEAL ([9]; rate 0.1250 kg/ha) | Preemergence herbicidal rating CHEAL ([9]; rate 0.2500 kg/ha)
3.0: Herbicidal rating GALAP ([3]; rate 0.0630 kg/ha)
4.0: Preemergence herbicidal rating IPOHE ([2]; rate 0.1250 kg/ha) | CYPIR herbicidal effect rating ([8]; 0.0313 kg/ha)
5.0: Herbicidal rating ZEAMX ([7]; rate 0.0158 kg/ha) | Preemergence herbicidal rating ORYSAT ([11]; rate 0.2500 kg/ha) | Preemergence herbicidal rating TRZAWR ([12]; rate 0.2500 kg/ha)
